This passage reports IC50 results from patent US20240148821A1, “PHARMACEUTICAL USE OF CYCLIC PEPTIDE COMPOUND” (CHUGAI SEIYAKU KABUSHIKI KAISHA, priority 2021, published 2024).

Numbered stars: 1 amine (or outer) side, 2 acyl side, 3 side chain; on linkers, the order of the positions; unused ones are H or OH. Bridge positions count the residues as written; N and C are the ends. Square brackets hold non-standard residues; d marks the D form. Peptide text beside a SMILES is read from it. * marks the point of attachment. hPhe(3-Cl-4-CF3) = N[C@@H](CCc1ccc(C(F)(F)F)c(Cl)c1)C(=O)O; hPhe(3-F,4-CF3) = N[C@@H](CCc1ccc(C(F)(F)F)c(F)c1)C(=O)O; NEtPhe(4-CF3) = CCN[C@@H](Cc1ccc(C(F)(F)F)cc1)C(=O)O; hPhe(4-CF3) = N[C@@H](CCc1ccc(C(F)(F)F)cc1)C(=O)O; Pro(cis-4-Ph) = O=C(O)[C@@H]1C[C@H](c2ccccc2)CN1; 3Oxa8azabicyclo(3.2.1)octane = C1CC2COCC1N2*; NMePhe(4-Cl) = CN[C@@H](Cc1ccc(Cl)cc1)C(=O)O; NMedβ3hAla = C[C@H](CC(=O)[*:2])N(C)[*:1]; NMeGly(cPent) = CN[C@H](C(=O)O)C1CCCC1; NMeCha = CN[C@@H](CC1CCCCC1)C(=O)O; Hyp = O=C(O)[C@@H]1C[C@@H](O)CN1; NMeChg = CN[C@H](C(=O)O)C1CCCCC1; NMeF = CN[C@@H](Cc1ccccc1)C(=O)O; NMeI = CC[C@H](C)[C@H](NC)C(=O)O; NMeD = CN[C@@H](CC(=O)O)C(=O)O; NMeL = CN[C@@H](CC(C)C)C(=O)O; NMehSer = CN[C@@H](CCO)C(=O)O; NMeV = CN[C@H](C(=O)O)C(C)C; d(β3hA) = C[C@@H](N)CC(=O)O; NMeS = CN[C@@H](CO)C(=O)O; Pip = O=C(O)[C@@H]1CCCCN1; NMeA = CN[C@@H](C)C(=O)O; Piperidide = C1CCN(*)CC1; Ac5c = NC1(C(=O)O)CCCC1; Aze = O=C(O)[C@@H]1CCN1; NBuGly = CCCCNCC(=O)O; Aib = CC(C)(N)C(=O)O; Sar = CNCC(=O)O; Propyl = CCC*

The assay addresses protein-protein interaction between Kras and SOS1 (biotin-tagged human Kras loaded with GDP, His-tagged human SOS1) (Homo sapiens (Human), UniProt P01116, G12D). Briefly: Protein-protein interaction inhibition between Kras and SOS1 (KrasG12D-SOS PPI) using AlphaScreen.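 Further: kras produced in E. coli, Ni-coupled donor beads and streptavidin acceptor beads, excitation 680 nm with emission detected at 520–620 nm via singlet oxygen transfer.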 In kind it is biochemical. The following applies: AlphaScreen; biotin-tagged human Kras loaded with GDP, His-tagged human SOS1; read-out: KRAS G12D-SOS PPI IC50.
The IC50 is the point on the concentration scale where inhibition reaches its midpoint. For the compound `CC[C@H](C)[C@@H]1NC(=O)[C@H](CCOC)N(C)C(=O)C[C@@H](C(=O)N2CCCCC2)N(C)C(=O)[C@H](C(C)C)N(C)C(=O)C2(CCCC2)NC(=O)[C@@H]2CCCN2C(=O)[C@H](CCc2ccc(C(F)(F)F)c(Cl)c2)NC(=O)CN(C)C(=O)[C@H](CC2CCCCC2)N(C)C(=O)[C@@H]2CCN2C(=O)[C@H](C)N(C)C1=O` [Compound 397] ([NMehSer](Me)I[NMeA][Aze][NMeCha][Sar][hPhe(3-Cl-4-CF3)]P[Ac5c][NMeV][NMeD]-Piperidide; lactam N-11), the IC50 was determined as 2.3 nM.

Turning to `CCO[C@@H]1C[C@H]2C(=O)NC3(CCCC3)C(=O)N(C)[C@@H](C3CCCC3)C(=O)N(C)[C@H](C)CC(=O)N(C)[C@@H](CC(C)C)C(=O)N[C@@H]([C@@H](C)CC)C(=O)N[C@@H](C)C(=O)N3CC[C@H]3C(=O)N(CC)[C@@H](Cc3ccc(C(F)(F)F)cc3)C(=O)N(C)CC(=O)N[C@@H](CCc3ccc(C(F)(F)F)c(Cl)c3)C(=O)N2C1` [Compound 401] (cyclo(A[Aze][NEtPhe(4-CF3)][Sar][hPhe(3-Cl-4-CF3)][Hyp](Et)[Ac5c][NMeGly(cPent)][NMedβ3hAla][NMeL]I)), the IC50 is 3.6 nM. Then `CC[C@H](C)[C@@H]1NC(=O)[C@H](C)NC(=O)C[C@@H](C)N(C)C(=O)[C@H](CC(C)C)N(C)C(=O)[C@H](Cc2ccccc2)N(C)C(=O)[C@H](CC(C)C)NC(=O)[C@H](CCc2ccc(C(F)(F)F)cc2)NC(=O)CN(C)C(=O)[C@H](Cc2ccc(Cl)cc2)N(C)C(=O)CN(C)C(=O)CN(C)C1=O` [Compound 406] (cyclo(AI[Sar][Sar][NMePhe(4-Cl)][Sar][hPhe(4-CF3)]L[NMeF][NMeL][NMedβ3hAla])), with 250 nM; and `CCCOC[C@H]1C(=O)N(C)CC(=O)N[C@@H](CCc2ccc(C(F)(F)F)c(F)c2)C(=O)N2CCC[C@H]2C(=O)NC2(CCCC2)C(=O)N(C)[C@@H]([C@@H](C)CC)C(=O)N(C)[C@H](C(=O)N2C3CCC2COC3)CC(=O)N(C)[C@@H](CC(C)C)C(=O)N[C@@H]([C@@H](C)CC)C(=O)N(C)[C@@H](C)C(=O)N2CC[C@H]2C(=O)N1C` [Compound 408] ([NMeL]I[NMeA][Aze][NMeS](Propyl)[Sar][hPhe(3-F,4-CF3)]P[Ac5c][NMeI][NMeD]-{3Oxa8azabicyclo(3.2.1)octane}; lactam N-11), with 11 nM. For `CC[C@H](C)[C@@H]1NC(=O)[C@H](CC(C)C)N(C)C(=O)C[C@@H](C(=O)N2CCCCC2)N(C)C(=O)[C@H]([C@@H](C)CC)N(C)C(=O)C2(CCCC2)NC(=O)[C@@H]2CCCN2C(=O)[C@H](CCc2ccc(C(F)(F)F)c(F)c2)NC(=O)CN(C)C(=O)[C@H](CC2CCCCC2)N(C)C(=O)[C@@H]2CCN2C(=O)[C@H](C)N(C)C1=O` [Compound 409] ([NMeL]I[NMeA][Aze][NMeCha][Sar][hPhe(3-F,4-CF3)]P[Ac5c][NMeI][NMeD]-Piperidide; lactam N-11), the IC50 amounted to 2.4 nM. As to `CC[C@H](C)[C@@H]1NC(=O)[C@H](C)N(C)C(=O)C[C@@H](C)NC(=O)[C@H](C(C)C)N(C)C(=O)C2(CCCC2)NC(=O)[C@@H]2CCCN2C(=O)[C@H](CCc2ccc(C(F)(F)F)c(Cl)c2)NC(=O)[C@H]2CCCN2C(=O)[C@H](CC2CCCCC2)N(C)C(=O)CN(C)C(=O)CN(C)C1=O` [Compound 412] (cyclo([Ac5c][NMeV][d(β3hA)][NMeA]I[Sar][Sar][NMeCha][dP][hPhe(3-Cl-4-CF3)]P)), the IC50 was 120 nM. Consider `CC[C@H](C)[C@@H]1NC(=O)[C@H](CC(C)C)N(C)C(=O)C[C@@H](C)NC(=O)[C@H](C(C)C)N(C)C(=O)C2(CCCC2)NC(=O)[C@@H]2CCCN2C(=O)[C@H](CCc2ccc(C(F)(F)F)c(Cl)c2)NC(=O)CN(C)C(=O)[C@H](CC2CCCCC2)N(C)C(=O)[C@@H]2CCN2C(=O)[C@@H]2CCCCN2C1=O` [Compound 416] (cyclo([Ac5c][NMeV][d(β3hA)][NMeL]I[Pip][Aze][NMeCha][Sar][hPhe(3-Cl-4-CF3)]P)), for which the concentration for half-maximal inhibition (IC50) came out at 54 nM. With `CC[C@H](C)[C@@H]1NC(=O)[C@H](CC(C)C)N(C)C(=O)C[C@@H](C(=O)N2CCCCC2)N(C)C(=O)[C@H](C2CCCCC2)N(C)C(=O)C2(CCCC2)NC(=O)[C@@H]2C[C@H](c3ccccc3)CN2C(=O)[C@H](CCc2ccc(C(F)(F)F)c(Cl)c2)NC(=O)CN(C)C(=O)[C@H](CC2CCCCC2)N(C)C(=O)CN(C)C(=O)CN(C)C1=O` [Compound 428] ([NMeL]I[Sar][Sar][NMeCha][Sar][hPhe(3-Cl-4-CF3)][Pro(cis-4-Ph)][Ac5c][NMeChg][NMeD]-Piperidide; lactam N-11), the IC50 was 9.1 nM. The value for `CCCCN1CC(=O)N(C)CC(=O)N(C)[C@@H](Cc2ccc(Cl)cc2)C(=O)N(C)CC(=O)N[C@@H](CCc2ccc(C(F)(F)F)cc2)C(=O)N(C)[C@@H](CC(C)C)C(=O)NC(C)(C)C(=O)N(C)[C@@H](CC(C)C)C(=O)N[C@H](C)CC(=O)N(C)[C@@H](C)C(=O)N[C@@H]([C@@H](C)CC)C1=O` [Compound 436] (cyclo([Aib][NMeL][d(β3hA)][NMeA]I[NBuGly][Sar][NMePhe(4-Cl)][Sar][hPhe(4-CF3)][NMeL])) was 160 nM.
